Data: patent publication US12371454B2, “Cyclic peptide compound having Kras inhibitory action” (priority 2019, dated 2025)
Starred links: 1 amine or outer side, 2 acyl side, 3 side chain; linkers in the order of their positions; H or OH if unused. Positions of bridges follow the written chain, without caps; N, C: chain ends. Non-standard residues stand in square brackets, D forms with d. Residues, ends and D or L forms follow the SMILES beside them. *: point of attachment. hPhe(3-Cl-4-CF3) = N[C@@H](CCc1ccc(C(F)(F)F)c(Cl)c1)C(=O)O; NMeAbu(4,4,4-F3) = CN[C@@H](CC(F)(F)F)C(=O)O; NMePhe(4-Me) = CN[C@@H](Cc1ccc(C)cc1)C(=O)O; NMePhe(4-F) = CN[C@@H](Cc1ccc(F)cc1)C(=O)O; NMedβ3hAla = C[C@H](CC(=O)[*:2])N(C)[*:1]; NMeAla(cPent) = CN[C@@H](CC1CCCC1)C(=O)O; NMeGly(cPent) = CN[C@H](C(=O)O)C1CCCC1; NMe3Pal = CN[C@@H](Cc1cccnc1)C(=O)O; NMeCha = CN[C@@H](CC1CCCCC1)C(=O)O; Pro(4-oxo) = O=C1CN[C@H](C(=O)O)C1; NMeChg = CN[C@H](C(=O)O)C1CCCCC1; NMeF = CN[C@@H](Cc1ccccc1)C(=O)O; NMeI = CC[C@H](C)[C@H](NC)C(=O)O; NMeD = CN[C@@H](CC(=O)O)C(=O)O; dNMeD = CN[C@H](CC(=O)O)C(=O)O; NMeL = CN[C@@H](CC(C)C)C(=O)O; NMeNle = CCCC[C@H](NC)C(=O)O; NMeV = CN[C@H](C(=O)O)C(C)C; d(β3hA) = C[C@@H](N)CC(=O)O; NMeS = CN[C@@H](CO)C(=O)O; Morpholide = C1CN(*)CCO1; NMeA = CN[C@@H](C)C(=O)O; Piperidide = C1CCN(*)CC1; Pyrrolidide = C1CCN(*)C1; dNMeA = CN[C@H](C)C(=O)O; Ac5c = NC1(C(=O)O)CCCC1; Aze = O=C(O)[C@@H]1CCN1; Cyclopropyl = C1CC1*; Sar = CNCC(=O)O; Propyl = CCC*

Target: T1, Kras and SOS1 (biotin-tagged human Kras loaded with GDP, His-tagged human SOS1) (Homo sapiens, UniProt P01116, G12D)
T1 construct: made in house; host or cells: E. coli (stated for Kras only)
Assay: Protein-protein interaction inhibition between Kras and SOS1 (KrasGl2D-SOS PPI) using AlphaScreen
Assay type: binding
Details: AlphaScreen; biotin-tagged human Kras loaded with GDP, His-tagged human SOS1; read-out: KRAS G12D-SOS PPI IC50
In short: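 AlphaScreen format: Ni donor beads capture His-SOS1, streptavidin acceptor beads capture biotinylated Kras (E. coli-expressed, GDP-loaded post-purification). Excite 680 nm, read 520-620 nm.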

T1 sequence (P01116 1-188 isoform P01116-2 G12D): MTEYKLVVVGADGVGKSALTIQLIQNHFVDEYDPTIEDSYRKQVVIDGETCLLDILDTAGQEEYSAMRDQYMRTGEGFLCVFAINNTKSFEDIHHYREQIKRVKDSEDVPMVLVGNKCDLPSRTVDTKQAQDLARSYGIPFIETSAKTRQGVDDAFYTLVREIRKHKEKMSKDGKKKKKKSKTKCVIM

SMILES | IC50 [nM]
CC(C)C[C@H]1C(=O)N[C@@H](CO)C(=O)N(C)CC(=O)N(C)CC(=O)N(C)[C@@H](CC2CCCCC2)C(=O)N(C)CC(=O)N[C@@H](CCc2ccc(C(F)(F)F)c(Cl)c2)C(=O)N2CCC[C@H]2C(=O)NC2(CCCC2)C(=O)N(C)[C@@H](C2CCCCC2)C(=O)N(C)[C@H](C(=O)N2CCCCC2)CC(=O)N1C [Compound 1799] ([NMeL]S[Sar][Sar][NMeCha][Sar][hPhe(3-Cl-4-CF3)]P[Ac5c][NMeChg][NMeD]-Piperidide; lactam N-11) | 15
CC(C)C[C@H]1C(=O)N[C@@H](C)C(=O)N(C)CC(=O)N(C)CC(=O)N(C)[C@@H](CC2CCCCC2)C(=O)N(C)CC(=O)N[C@@H](CCc2ccc(C(F)(F)F)c(Cl)c2)C(=O)N2CCC[C@H]2C(=O)NC2(CCCC2)C(=O)N(C)[C@@H](C2CCCCC2)C(=O)N(C)[C@H](C(=O)N2CCCCC2)CC(=O)N1C [Compound 1802] ([NMeL]A[Sar][Sar][NMeCha][Sar][hPhe(3-Cl-4-CF3)]P[Ac5c][NMeChg][NMeD]-Piperidide; lactam N-11) | 21
CC[C@H](C)[C@@H]1NC(=O)[C@H](C)N(C)C(=O)C[C@@H](C)N(C)C(=O)[C@H](C2CCCCC2)N(C)C(=O)C2(CCCC2)NC(=O)[C@@H]2CCCN2C(=O)[C@H](CCc2ccc(C(F)(F)F)c(Cl)c2)NC(=O)CN(C)C(=O)[C@H](CC2CCCCC2)N(C)C(=O)CN(C)C(=O)CN(C)C1=O [Compound 1808] (cyclo([Ac5c][NMeChg][NMedβ3hAla][NMeA]I[Sar][Sar][NMeCha][Sar][hPhe(3-Cl-4-CF3)]P)) | 47
CC[C@H](C)[C@@H]1NC(=O)[C@H](CC(C)C)N(C)C(=O)C[C@@H](C)N(C)C(=O)[C@H](C2CCCCC2)N(C)C(=O)C2(CCCC2)NC(=O)[C@@H]2CCCN2C(=O)[C@H](CCc2ccc(C(F)(F)F)c(Cl)c2)NC(=O)CN(C)C(=O)[C@H](CC2CCCCC2)N(C)C(=O)[C@@H]2CCN2C(=O)[C@H](C)N(C)C1=O [Compound 1813] (cyclo([Ac5c][NMeChg][NMedβ3hAla][NMeL]I[NMeA][Aze][NMeCha][Sar][hPhe(3-Cl-4-CF3)]P)) | 36
CC[C@H](C)[C@@H]1NC(=O)[C@H](CC(C)C)N(C)C(=O)C[C@H](C(=O)N2CCCC2)N(C)C(=O)[C@H]([C@@H](C)CC)N(C)C(=O)C2(CCCC2)NC(=O)[C@@H]2CCCN2C(=O)[C@H](CCc2ccc(C(F)(F)F)c(Cl)c2)NC(=O)CN(C)C(=O)[C@H](CC2CCCCC2)N(C)C(=O)CN(C)C(=O)CN(C)C1=O [Compound 1814] ([NMeL]I[Sar][Sar][NMeCha][Sar][hPhe(3-Cl-4-CF3)]P[Ac5c][NMeI][dNMeD]-Pyrrolidide; lactam N-11) | 170
CCCC[C@H]1C(=O)N(C)[C@H](C(=O)N2CCCCC2)CC(=O)N(C)[C@@H](CC(C)C)C(=O)N[C@@H]([C@@H](C)CC)C(=O)N(C)CC(=O)N(C)CC(=O)N(C)[C@@H](CC2CCCCC2)C(=O)N(C)CC(=O)N[C@@H](CCc2ccc(C(F)(F)F)c(Cl)c2)C(=O)N2CCC[C@H]2C(=O)NC2(CCCC2)C(=O)N1C [Compound 1815] ([NMeL]I[Sar][Sar][NMeCha][Sar][hPhe(3-Cl-4-CF3)]P[Ac5c][NMeNle][NMeD]-Piperidide; lactam N-11) | 2.5
CC[C@H](C)[C@@H]1NC(=O)[C@H](CC(C)C)N(C)C(=O)C[C@@H](C(=O)N2CCCC2)N(C)C(=O)[C@H](C2CCCC2)N(C)C(=O)C2(CCCC2)NC(=O)[C@@H]2CCCN2C(=O)[C@H](CCc2ccc(C(F)(F)F)c(Cl)c2)NC(=O)CN(C)C(=O)[C@H](CC2CCCCC2)N(C)C(=O)CN(C)C(=O)CN(C)C1=O [Compound 1818] ([NMeL]I[Sar][Sar][NMeCha][Sar][hPhe(3-Cl-4-CF3)]P[Ac5c][NMeGly(cPent)][NMeD]-Pyrrolidide; lactam N-11) | 0.4
CC[C@H](C)[C@@H]1NC(=O)[C@H](CC(C)C)N(C)C(=O)C[C@@H](C(=O)N2CCCCC2)N(C)C(=O)[C@H](C(C)C)N(C)C(=O)C2(CCCC2)NC(=O)[C@@H]2CC(=O)CN2C(=O)[C@H](CCc2ccc(C(F)(F)F)c(Cl)c2)NC(=O)CN(C)C(=O)[C@H](CC2CCCCC2)N(C)C(=O)[C@@H]2CCN2C(=O)[C@H](C)N(C)C1=O [Compound 1819] ([NMeL]I[NMeA][Aze][NMeCha][Sar][hPhe(3-Cl-4-CF3)][Pro(4-oxo)][Ac5c][NMeV][NMeD]-Piperidide; lactam N-11) | 3.8
CC[C@H](C)[C@@H]1NC(=O)[C@H](C)N(C)C(=O)C[C@@H](C(=O)N2CCCC2)N(C)C(=O)[C@H](C2CCCCC2)N(C)C(=O)C2(CCCC2)NC(=O)[C@H](Cc2cccnc2)N(C)C(=O)[C@H](CCc2ccc(C(F)(F)F)c(Cl)c2)NC(=O)CN(C)C(=O)[C@H](CC2CCCCC2)N(C)C(=O)CN(C)C(=O)CN(C)C1=O [Compound 1834] ([NMeA]I[Sar][Sar][NMeCha][Sar][hPhe(3-Cl-4-CF3)][NMe3Pal][Ac5c][NMeChg][NMeD]-Pyrrolidide; lactam N-11) | 0.81
CC[C@H](C)[C@@H]1NC(=O)[C@H](CC(C)C)N(C)C(=O)C[C@@H](C(=O)N(C)C)N(C)C(=O)[C@H]([C@@H](C)CC)N(C)C(=O)C2(CCCC2)NC(=O)[C@@H]2CCCN2C(=O)[C@H](CCc2ccc(C(F)(F)F)c(Cl)c2)NC(=O)CN(C)C(=O)[C@H](Cc2ccc(C)cc2)N(C)C(=O)CN(C)C(=O)CN(C)C1=O [Compound 1836] ([NMeL]I[Sar][Sar][NMePhe(4-Me)][Sar][hPhe(3-Cl-4-CF3)]P[Ac5c][NMeI][NMeD]-NMe2; lactam N-11) | 0.47
CC[C@H](C)[C@@H]1NC(=O)[C@H](CC(C)C)N(C)C(=O)C[C@@H](C(=O)N2CCCCC2)N(C)C(=O)[C@H](C2CCCCC2)N(C)C(=O)C2(CCCC2)NC(=O)[C@@H]2CCCN2C(=O)[C@H](CCc2ccc(C(F)(F)F)c(Cl)c2)NC(=O)CN(C)C(=O)[C@H](CC(F)(F)F)N(C)C(=O)CN(C)C(=O)CN(C)C1=O [Compound 1841] ([NMeL]I[Sar][Sar][NMeAbu(4,4,4-F3)][Sar][hPhe(3-Cl-4-CF3)]P[Ac5c][NMeChg][NMeD]-Piperidide; lactam N-11) | 4.4
CC[C@H](C)[C@@H]1NC(=O)[C@H](C)N(C)C(=O)C[C@@H](C(=O)N2CCCCC2)N(C)C(=O)[C@H](C(C)C)N(C)C(=O)C2(CCCC2)NC(=O)[C@@H]2CCCN2C(=O)[C@H](CCc2ccc(C(F)(F)F)c(Cl)c2)NC(=O)[C@@H](C)N(C)C(=O)[C@H](Cc2ccccc2)N(C)C(=O)CN(C)C(=O)CN(C)C1=O [Compound 1844] ([NMeA]I[Sar][Sar][NMeF][dNMeA][hPhe(3-Cl-4-CF3)]P[Ac5c][NMeV][NMeD]-Piperidide; lactam N-11) | 17
CC[C@H](C)[C@@H]1NC(=O)[C@H](CC(C)C)N(C)C(=O)C[C@@H](C(=O)N2CCOCC2)N(C)C(=O)[C@H](C(C)C)N(C)C(=O)C2(CCCC2)NC(=O)[C@@H]2CCCN2C(=O)[C@H](CCc2ccc(C(F)(F)F)c(Cl)c2)NC(=O)CN(C)C(=O)[C@H](CC2CCCC2)N(C)C(=O)CN(C)C(=O)CN(C)C1=O [Compound 1848] ([NMeL]I[Sar][Sar][NMeAla(cPent)][Sar][hPhe(3-Cl-4-CF3)]P[Ac5c][NMeV][NMeD]-Morpholide; lactam N-11) | 1.4
CC[C@H](C)[C@@H]1NC(=O)[C@H](C)N(C)C(=O)C[C@@H](C(=O)N2CCCCC2)N(C)C(=O)[C@H](C(C)C)N(C)C(=O)C2(CCCC2)NC(=O)[C@@H]2CCCN2C(=O)[C@H](CCc2ccc(C(F)(F)F)c(Cl)c2)NC(=O)[C@@H](C)N(C)C(=O)[C@H](Cc2ccc(F)cc2)N(C)C(=O)[C@@H]2CCCN2C(=O)CN(C)C1=O [Compound 1853] ([NMeA]I[Sar]P[NMePhe(4-F)][dNMeA][hPhe(3-Cl-4-CF3)]P[Ac5c][NMeV][NMeD]-Piperidide; lactam N-11) | 8.9
CCCOC[C@H]1C(=O)N(C)[C@H](C(=O)N2CCCCC2)CC(=O)N(C)[C@@H](CC(C)C)C(=O)N[C@@H]([C@@H](C)CC)C(=O)N(C)[C@@H](C)C(=O)N2CC[C@H]2C(=O)N(C)[C@@H](CC2CCCCC2)C(=O)N(C)CC(=O)N[C@@H](CCc2ccc(C(F)(F)F)c(Cl)c2)C(=O)N2CCC[C@H]2C(=O)NC2(CCCC2)C(=O)N1C [Compound 1855] ([NMeL]I[NMeA][Aze][NMeCha][Sar][hPhe(3-Cl-4-CF3)]P[Ac5c][NMeS](Propyl)[NMeD]-Piperidide; lactam N-11) | 340
CC[C@H](C)[C@@H]1NC(=O)[C@H](CC(C)C)N(C)C(=O)C[C@@H](C)NC(=O)[C@H](C2CCCCC2)N(C)C(=O)C2(CCCC2)NC(=O)[C@@H]2CCCN2C(=O)[C@H](CCc2ccc(C(F)(F)F)c(Cl)c2)NC(=O)CN(C)C(=O)[C@H](Cc2ccc(C)cc2)N(C)C(=O)CN(C)C(=O)CN(C)C1=O [Compound 1856] (cyclo([Ac5c][NMeChg][d(β3hA)][NMeL]I[Sar][Sar][NMePhe(4-Me)][Sar][hPhe(3-Cl-4-CF3)]P)) | 5.4
CC[C@H](C)[C@@H]1NC(=O)[C@H](CC(C)C)N(C)C(=O)C[C@@H](C(=O)N2CCCCC2)N(C)C(=O)[C@H](COC2CC2)N(C)C(=O)C2(CCCC2)NC(=O)[C@@H]2CCCN2C(=O)[C@H](CCc2ccc(C(F)(F)F)c(Cl)c2)NC(=O)CN(C)C(=O)[C@H](CC2CCCCC2)N(C)C(=O)CN(C)C(=O)CN(C)C1=O [Compound 1857] ([NMeL]I[Sar][Sar][NMeCha][Sar][hPhe(3-Cl-4-CF3)]P[Ac5c][NMeS](Cyclopropyl)[NMeD]-Piperidide; lactam N-11) | 19
CC[C@H](C)[C@@H]1NC(=O)[C@H](CC(C)C)N(C)C(=O)C[C@@H](C(=O)N(C)C)N(C)C(=O)[C@H]([C@@H](C)CC)N(C)C(=O)C2(CCCC2)NC(=O)[C@@H]2CCCN2C(=O)[C@H](CCc2ccc(C(F)(F)F)c(Cl)c2)NC(=O)CN(C)C(=O)[C@H](CC2CCCCC2)N(C)C(=O)[C@@H]2CCN2C(=O)[C@H](C)N(C)C1=O [Compound 1858] ([NMeL]I[NMeA][Aze][NMeCha][Sar][hPhe(3-Cl-4-CF3)]P[Ac5c][NMeI][NMeD]-NMe2; lactam N-11) | 1.1
